Measurements reported in PubChem BioAssay AID330 (DTP/NCI, 2004).
Inconclusive results and toxic doses are left out. The calls were made as follows: active = survival T/C of 150% or more; inactive = T/C below 125% in these data.

Test system: P388 leukemia ip, CD2F1 mice, survival T/C
Assay: NCI In Vivo Anticancer Drug Screen. Data for tumor model P388 Leukemia (intraperitoneal) in CD2F1 (CDF1) mice
Settings: endpoint: median survival time, higher = longer survival
How it was run: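 Mice carrying the transplanted tumor received test compound or vehicle. Survival was recorded in each group, and the value is the treated-group measurement divided by that of the vehicle-treated control group.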

[1] = dose: 50.0 mg/kg/injection, schedule: Q01DX009 (ip), vehicle: saline
[2] = dose: 100.0 mg/kg/injection, schedule: Q01DX009 (ip), vehicle: saline
[3] = dose: 200.0 mg/kg/injection, schedule: Q01DX009 (ip), vehicle: saline

Measured: T/C

O=C(/C=C/c1ccc(Cl)c(Cl)c1)/C=C/c1ccc(Cl)c(Cl)c1
inactive: dose: 50.0 mg/kg/injection, schedule: Q01DX009 (ip), vehicle: saline with Tween-80 87 % of control | dose: 100.0 mg/kg/injection, schedule: Q01DX009 (ip), vehicle: saline with Tween-80 100 % of control | dose: 200.0 mg/kg/injection, schedule: Q01DX009 (ip), vehicle: saline with Tween-80 87 % of control

COc1nc(NC2OC(CO)C(O)C(O)C2O)c(C=O)c(=O)n1C (stereo not given)
inactive: dose: 60.0 mg/kg/injection, schedule: Q01DX005 (ip), vehicle: saline 93 % of control | dose: 120.0 mg/kg/injection, schedule: Q01DX005 (ip), vehicle: saline 100 % of control | dose: 240.0 mg/kg/injection, schedule: Q01DX005 (ip), vehicle: saline 99 % of control

CC(C)N(CCNc1cccnc1[N+](=O)[O-])C(C)C
inactive: [1] 115 % of control | [2] 108 % of control | [3] 117 % of control

[O]=[Ge]([c]1ccccc1)[c]1ccccc1
inactive: [1] 95 % of control | [2] 96 % of control | [3] 92 % of control

CCOC(=O)Cc1cc2c(cc1C)CNC(=O)C2
inactive: dose: 6.25 mg/kg/injection, schedule: Q01DX009 (ip), vehicle: distilled water + Tween-80 94 % of control | dose: 12.5 mg/kg/injection, schedule: Q01DX009 (ip), vehicle: distilled water + Tween-80 100 % of control | dose: 25.0 mg/kg/injection, schedule: Q01DX009 (ip), vehicle: distilled water + Tween-80 100 % of control | dose: 50.0 mg/kg/injection, schedule: Q01DX009 (ip), vehicle: distilled water + Tween-80 94 % of control | dose: 100.0 mg/kg/injection, schedule: Q01DX009 (ip), vehicle: distilled water + Tween-80 94 % of control | dose: 200.0 mg/kg/injection, schedule: Q01DX009 (ip), vehicle: distilled water + Tween-80 90 % of control | dose: 400.0 mg/kg/injection, schedule: Q01DX009 (ip), vehicle: distilled water + Tween-80 102 % of control

NC1=C(Br)C(=O)c2[nH]c(=O)[nH]c(=O)c2C1=O
inactive: dose: 6.25 mg/kg/injection, schedule: Q01DX005 (ip), vehicle: Klucel (hydroxypropylcellulose) (HPC) 98 % of control | dose: 12.5 mg/kg/injection, schedule: Q01DX005 (ip), vehicle: Klucel (hydroxypropylcellulose) (HPC) 100 % of control | dose: 25.0 mg/kg/injection, schedule: Q01DX005 (ip), vehicle: Klucel (hydroxypropylcellulose) (HPC) 102 % of control | dose: 50.0 mg/kg/injection, schedule: Q01DX005 (ip), vehicle: Klucel (hydroxypropylcellulose) (HPC) 100 % of control

COCC1=C(C)CC(C(C)(C)C(=O)OC)C1=O (stereo not given)
inactive: dose: 100.0 mg/kg/injection, schedule: Q01DX001 (ip), vehicle: saline 101 % of control | dose: 200.0 mg/kg/injection, schedule: Q01DX001 (ip), vehicle: saline 101 % of control | dose: 400.0 mg/kg/injection, schedule: Q01DX001 (ip), vehicle: saline 104 % of control

CC1CCN(C(=O)Nc2c(Cl)cccc2Cl)CC1
inactive: dose: 60.0 mg/kg/injection, schedule: Q01DX005 (ip), vehicle: Klucel (hydroxypropylcellulose) (HPC) 99 % of control | dose: 120.0 mg/kg/injection, schedule: Q01DX005 (ip), vehicle: Klucel (hydroxypropylcellulose) (HPC) 101 % of control | dose: 240.0 mg/kg/injection, schedule: Q01DX005 (ip), vehicle: Klucel (hydroxypropylcellulose) (HPC) 94 % of control

COC(=O)CCc1cc(=O)oc2c(I)c(O)cc(O)c12
inactive: dose: 8.75 mg/kg/injection, schedule: Q01DX005 (ip), vehicle: Klucel (hydroxypropylcellulose) (HPC) 99 % of control | dose: 17.5 mg/kg/injection, schedule: Q01DX005 (ip), vehicle: Klucel (hydroxypropylcellulose) (HPC) 93 % of control | dose: 35.0 mg/kg/injection, schedule: Q01DX005 (ip), vehicle: Klucel (hydroxypropylcellulose) (HPC) 101 % of control

[NH-]C(CCC(N)=O)C(=O)O.[NH-]C(CCCCN)C(=O)O.[Zn+2] (stereo not given)
inactive: dose: 12.5 mg/kg/injection, schedule: Q01DX005 (ip), vehicle: saline 102 % of control | dose: 25.0 mg/kg/injection, schedule: Q01DX005 (ip), vehicle: saline 105 % of control | dose: 50.0 mg/kg/injection, schedule: Q01DX005 (ip), vehicle: saline 110 % of control
